Molecules are shown by their SMILES.

The subject of one assay is velvetleaf. Nature of the assay: Test A velvetleaf. The class given is in vivo, Abutilon theophrasti. The note with it: 0 to 10 scale where 0 is no effect and 10 is complete control. In outline:
(§1)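 Ratings came from visual comparison with untreated plants about eleven days after treatment, scored 0 for no effect through 10 for complete control. Both soil-drench preemergence and runoff-spray postemergence applications were made at the same time.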

Another assay has as its system morningglory. Nature of the assay: Test A morningglory. The class given is in vivo, Ipomoea spp. The note with it: 0 to 10 scale where 0 is no effect and 10 is complete control. Summed up: as §1

In the case of `CC(C)N(C(=O)n1oc(=O)n(C)c1=O)c1ccc(Cl)cc1` [Compound 137], the “Plant response rating, Velvetleaf” value with velvetleaf (Postemergence, Rate 1000 g/ha) was determined as 2; with velvetleaf (Pre-emergence, Rate 2000 g/ha) it was 5. In addition, the “Plant response rating, Morningglory” value in the assay with morningglory (Postemergence, Rate 1000 g/ha) is recorded as 10; in the assay on morningglory (Pre-emergence, Rate 2000 g/ha), 3.

For the molecule `CC(C)N(C(=O)n1oc(=O)n(N(C)c2ccccc2)c1=O)c1ccc(F)cc1` [Compound 177], the “Plant response rating, Velvetleaf” value with velvetleaf (Postemergence, Rate 1000 g/ha) is 2; with velvetleaf (Pre-emergence, Rate 2000 g/ha), 1. Moreover, the “Plant response rating, Morningglory” value with morningglory (Postemergence, Rate 1000 g/ha) is 0; with morningglory (Pre-emergence, Rate 2000 g/ha) it was 0.

On to `CC(C)N(C(=O)n1oc(=O)n(C2CCCC(C(F)(F)F)C2)c1=O)c1ccc(F)cc1` (centres unmarked) [Compound 184], for which the “Plant response rating, Velvetleaf” value with velvetleaf (Postemergence, Rate 1000 g/ha) amounted to 2; in the assay on velvetleaf (Pre-emergence, Rate 2000 g/ha), 0. Besides, the “Plant response rating, Morningglory” value with morningglory (Postemergence, Rate 1000 g/ha) came out at 10; with morningglory (Pre-emergence, Rate 2000 g/ha), 0.

`Cc1ccccc1-n1c(=O)on(C(=O)N(c2cc(OC(C)C)c(Cl)cc2Cl)C(C)C)c1=O` [Compound 42]: the “Plant response rating, Velvetleaf” value with velvetleaf (Postemergence, Rate 1000 g/ha) is on record as 0; in the assay with velvetleaf (Pre-emergence, Rate 2000 g/ha), 0. Also, the “Plant response rating, Morningglory” value with morningglory (Postemergence, Rate 1000 g/ha) was found to be 0; with morningglory (Pre-emergence, Rate 2000 g/ha), 0.

On to `CCN(C(=O)n1oc(=O)n(N(C)c2ccccc2)c1=O)C1CCCCC1` [Compound 183], for which the “Plant response rating, Velvetleaf” value in the assay on velvetleaf (Postemergence, Rate 1000 g/ha) is 0; with velvetleaf (Pre-emergence, Rate 2000 g/ha), 0. Besides, the “Plant response rating, Morningglory” value turned out to be 0 in the assay with morningglory (Postemergence, Rate 1000 g/ha) and 0 with morningglory (Pre-emergence, Rate 2000 g/ha).

Values taken from patent US6737383B1, “Herbicidal oxadiazolidines” (priority 1999, dated 2004).
